Here are results for four molecules from US10576456B2, “Systems and methods of preparing stabilized lipid assemblies” (ARIZONA BOARD OF REGENTS ON BEHALF OF THE UNIVERSITY OF …, priority 2014, dated 2020).

Data set [1] is described as follows: Frontal chromatography retention on poly(bis-SorbPC)-coated silica. Format: physicochemical. To be noted: PBS pH 7.4, 1 μL min^−1, 100 μM sample. As to the method:
(§1) Particles were packed in capillaries (50 μm or 75 μ[…].; Polymicro Technologies, Phoenix, Ariz.) against Microtight filter assemblies (Upchurch Scientific, Oak Harbor, Wash.). […] Frontal chromatography was performed using a lab-built instrument. Isocratic elution with PBS, pH 7.4, as the mobile phase utilized pressure driven flow that was applied by a Micropro Syringe Pumping System (Eldex, Napa, Calif.) connected to a […] injection valve (Valco, Houston, Tex.) with a 600 nL sample loop. […] The elution profile was monitored by ultraviolet absorbance detection (Model 500 Detector, ChromTech, Apple Valley, Minn.) at 220 nm. Signal from the detector was collected with an A/D converter (NI USB-6221, National Instruments, Austin, Tex.) and software written in LabVIEW (National Instruments). […] Statistical significance was determined using the two-tailed Student's t-test.

The nature of data set [2]: Frontal chromatography retention on bare silica. It counts as physicochemical. To be noted: PBS pH 7.4, 1 μL min^−1, 100 μM sample. The protocol: as §1
The nature of data set [3]: TIRFM measurement of Alexa 488-CTB binding to GM1 in polymerized bis-SorbPC PSLB. Conditions: 1 mol % GM1; 1 h static incubation. As to the method:
Phosphate buffered saline (PBS) was used to measure the background. Alexa 488-CTB solutions (500 μL) were then injected into the flow cell, sequentially from the lowest concentration to the highest. One hour of static incubation after each injection, the fluorescent signal from GM1-bound Alexa 488-CTB was then measured. The fluorescent signal from dissolved Alexa 488-CTB was negligible so the dissolved protein solution was not flushed from the cell before each measurement. The solid line is a fit of the data to the Hill equation.
CTB labeled with Alexa Fluor 488 (Alexa 488-CTB) was purchased from Invitrogen (Eugene, Oreg.). Total internal reflection fluorescence microscopy (TIRFM) was used to measure the binding of Alexa 488-CTB to 1 mol % GM1 in a polymerized bis-SorbPC PSLB. The TIRFM system has been described previously. The 488 nm line of an Ar^+ laser (Ion Laser Technology) was coupled into a fused silica slide using a 45° prism (Edmund Optics). […] One of the internal reflections at the upper surface of the slide was used to excite fluorescence from Alexa 488-CTB bound to the PSLB. The fluorescence signal was collected using a 4× objective, directed through a 535DF35 (Omega Optical, Brattleboro, Vt.) band pass filter, and detected using CCD (Andor Technology USA, South Windsor, Conn.).

Turning to `CC(=O)Oc1ccccc1C(=O)O` [Acetylsalicylic acid], the Retention time in data set [1] stood at 14.6 ± 0.6 min; in data set [2], 10.1 ± 0.2 min.

On to `O=C(O)c1ccccc1` [Benzoic acid], for which the Retention time in data set [1] came out at 14.1 ± 0.1 min; in data set [2] it was 9.6 ± 0.2 min. Taken in the same sequence, the figures for `O=C(O)c1ccccc1O` [Salicylic acid] were 14.3 ± 0.1 min and 9.7 ± 0.1 min. Consider “Alexa 488-CTB: CTB labeled with Alexa Fluor 488”, for which the “dissolved concentration that saturates the PSLB” value in data set [3] is “approximately 0.1 μM”.
